Data set [1] concerns HCV genotype Ib replicon (I389luc-ubi-neo/NS3-3′/ET) in Huh-luc/neo-ET cells. In kind it is cell-based. The following applies: for Efficacy, Antagonism vol / Interaction: second drug in combination with miravirsen (SPC3649); for Efficacy, Antagonism vol: 95% confidence interval, median (≧3 experiments) or individual values; for Interaction: overall. Here is the method:
(§1) The anti-viral efficacy and cellular toxicity of non-transfected antimiR oligonucleotide in combination with approved and experimental anti-HCV therapeutics (e.g. NM283, 2′-C-methylcytidine, and/or VX-222) (or other NS5B polymerase inhibitors) was determined in the reporter cell line Huh-luc/neo-ET. This cell line harbors the persistently replicating I389luc-ubi-neo/NS3-3′/ET replicon containing the firefly luciferase gene-ubiquitin-neomycin phosphotransferase fusion protein and EMCV IRES driven NS3-5B HCV coding sequences containing the ET tissue culture adaptive mutations (E1202G, T1208I, and K1846T). Eight dilutions of non-transfected antimiR oligonucleotide (bracketing the calculated EC50) were evaluated in triplicate on duplicate sets of three plates with five dilutions of each of the control compounds (bracketing the calculated EC50). One set of plates was used for the determination of cellular toxicity and the other set of plates was used for the determination of anti-viral efficacy. The efficacy and toxicity results was quantified with firefly luciferase activity and XTT dye reduction, respectively, and the results of the assay is imported into the Prichard and Shipman MacSynergy II software program. The MacSynery II analysis includes calculation of the dose response of the two (or more) compounds when used alone followed by calculation of the expected additive level of antiviral inhibition or toxicity when the compounds are used together based on the individual dose response curves. The expected level of activity at each of the concentration data points was compared to the experimentally determined antiviral activity in the assay. The expected activity was subtracted from the realized activity, yielding a negative, zero or positive value. These values are plotted as a three dimensional representation of the data and the result is reported as a two-factor value, expressing the combined average above the expected level of activity (synergy volume) and the combined average below the expected level of activity (antagonism volume). Combination analysis was performed two or more times for each pair of test compound and control substance.
(§2) The reporter cell line Huh-luc/neo-ET was obtained from Dr. Ralf Bartenschlager (Department of Molecular Virology, Hygiene Institute, University of Heidelberg, Germany) by ImQuest BioSciences. This cell line harbors the persistently replicating 1389luc-ubi-neo/NS3-3′IET replicon containing the firefly luciferase gene-ubiquitinneomycin phosphotransferase fusion protein and EMCV IRES driven NS3-5B HCV coding sequences containing the ET tissue culture adaptive mutations (E 1202G, T12081, and KI846T). A stock culture of the Huh-luc/neo-ET was expanded by culture in DMEM supplemented with 10% FBS, 2 mM glutamine, penicillin (100 IU/mL)/streptomycin (100 f·Ig/mL) and IX nonessential amino acids plus I mg/ml G418. Prior to plating, the cells were split 1:4 and cultured for two passages in the same medium plus 250 f·Ig/mL G418. The cells were treated with trypsin and enumerated by staining with trypan blue and seeded into 96-well tissue culture plates at a cell culture density 5.0×10^3 cells per well in a volume of 85 f·IL per well and incubated at […] in an environment of 5% CO2 for 24 hours. Six plates were established for the determination of combination efficacy (EC50) and cytotoxicity (TC50) for each of the compound combinations (three plates each for efficacy and toxicity). Following the 24 hour incubation, eight 2-fold serial dilutions of SPC3649 in cell culture medium without G418 were prepared (final in well high test concentration of 1.20 μM to 2.40 μM) and added to the cells and five 2-fold or 5-fold serial dilutions of control compounds in cell culture medium without G418 were prepared and added to the cells.

The subject of data set [2] is Huh-luc/neo-ET cells. The experiment in a line: Cellular toxicity by XTT dye reduction in Huh-luc/neo-ET cells. As to the method:
as §1
as §2, with “Following the 24 hour incubation, eight 2-fold serial dilutions of SPC3649 in cell culture medium without G418 were prepared (final in well high test concentration of 1.20 μM to 2.40 μM) and added to the cells and five 2-fold or 5-fold serial dilutions of control compounds in cell culture medium without G418 were prepared and added to the cells.” left out
Background: Tetrazolium assays rely on reduction of a dye to a coloured formazan, in cell work by metabolically active cells.

The test system of data set [3] is Huh-luc/neo-ET HCV genotype Ib replicon cells. In kind it is cell-based. The following applies: for rate of cell expansion / resistant clonal populations: selection with G418, 28 days; for resistant clonal populations: crystal violet. Here is the method: Cell culture and Assay setup: The reporter cell line Huh-luc/neo-ET was obtained and prepare as described previously. Cells were plated into 10 cm tissue culture dishes at a density of 3×10^5 cells per plate in culture medium containing 250 μg/ml G418 and incubated for 24 hours at 37° C. in an environment of 5% C02. Following the 24 hour incubation, dilutions of SPC3649, SPC4729, or telaprevir were prepared in cell culture medium (as above) with 750 μg/ml G418. Each of the dilutions was added to duplicate plates and the plates were incubated at 37° C. in an environment of 5% CO^2. Two additional plates received cell culture medium with 750 μg/ml G418 as a no-treatment control. […] The final concentration of SPC4729 was 10.0 μM. […] Following 28 days of passage, one set of dishes was stained with crystal violet and the other set of plates was utilized for expansion and establishment of resistant cell culture stocks.
Huh-luc/neo-ET HCY genotype Ib replicon cells were cultured under selective pressure in the presence of 750 μg/mL G4 I8 with and without four independent fixed concentrations of SPC3649 anti-miR oligonucleotide, or telaprevir, or one concentration of scrambled oligonucleotide SPC4729 for 28 days in tissue culture plates. Duplicate tissue culture dishes were established and maintained for each culture condition. Medium was replaced bi-weekly during the 28 days of culture and the cells were split at the time of medium replenishment to maintain a confluent cell culture monolayer. Following four weeks in culture, cells were either fixed with methanol and stained with crystal violet or expanded for subsequent phenotypic and genotypic characterization.

[4] abbreviates: in combination with ribavirin, 95% confidence level.
Where [5] appears, read: second drug in combination with miravirsen (SPC3649), 95% confidence interval, median or individual values.

“And” between values parts separate entries of the source, which are not always exact repeats. Equal entries are not always repeated. “Also recorded” adds a separate entry of the source. Where two headings read alike, the source gives them in different places.

As to “5′-^mCs^ocsAs^otstsGs^oTs^ocsas^mCs^oas^mCs^ots^mCs^omC^o-3′ (CCATTGTCACACTCC; all phosphorothioate, sugars by position and methylation of C not given here; further chemistry not fully specified) [miravirsen]”, in data set [1] (in combination with ribavirin), the overall antiviral interaction entry was “apparent synergy”. The EC50 in data set [1] (previously reported against stable HCV cell lines, read-out: average EC50) came out at 671 nM; in data set [1] (read-out: EC50 (+/− SD)), 670 nM. The CC50 in data set [2] (read-out: CC50 (+/−SD), tested alone) was over 158000 nM. In addition, in data set [3], the “rate of cell expansion” value is “decrease in the rate of cell expansion”. In data set [3] (listed as SPC3649), the resistant clonal populations result is “failed to produce distinct individual resistant clonal populations; also recorded: distinct individual resistant clonal populations were not produced”.
As for `CCC[C@H](NC(=O)[C@@H]1[C@H]2CCC[C@H]2CN1C(=O)[C@@H](NC(=O)[C@@H](NC(=O)c1cnccn1)C1CCCCC1)C(C)(C)C)C(=O)C(=O)NC1CC1` [Telaprevir, (1S,3aR,6aS)-2-[(2S)-2-[[(2S)-2-Cyclohexyl-2-(pyrazine-2-carbonylamino)acetyl]amino]-3,3-dimethylbutanoyl]-N-[(3S)-1-(cyclopropylamino)-1,2-dioxohexan-3-yl]-3,3a,4,5,6,6a-hexahydro-1H-cyclopenta[c]pyrrole-1-carboxamide], in data set [1] (in combination with ribavirin), the overall antiviral interaction result is recorded as “inconclusive”. In data set [1] (in combination with ribavirin, 95% confidence level, individual values), the “Efficacy, Antag Vol” value was 0.00/−200.2 μM^2% and 37.5/−22.6; μM^2%. The results for the “Efficacy, Antagonism vol” value in data set [1] and in data set [1] (listed as telaprevir) were 0/−3.2 μM^2% and −3.22 μM^2%, respectively. The results for the Interaction result in data set [1] and in data set [1] (listed as telaprevir) were “Positive” and “positive interaction”, respectively. Further, the “impact of combination on in vitro cytotoxicity” value in data set [2] (in combination with ribavirin) is listed as “antagonistic interaction”. The “Cytotoxicity, Antag Vol” value in data set [2] (setting [4]) was −50.9 μM^2%. The “Cytotoxicity, Synergy vol” value in data set [2] (setting [4]) was 0.00 μM^2%; in data set [2] (setting [5]) it was 0 μM^2%. The “Cytotoxicity, Antagonism vol” value in data set [2] (setting [5]) is −5.05 μM^2%. Also, the Cell split ratio entry in data set [3] (1.50 μM plus G418, day 15) is on record as “N.S”; in data set [3] (1.50 μM plus G418, day 22) it was “N.S”; in data set [3] (3.00 μM plus G418, day 15), “N.S”; in data set [3] (3.00 μM plus G418, day 18), “N.S”; in data set [3] (3.00 μM plus G418, day 22) it was “N.S”; in data set [3] (3.00 μM plus G418, day 25), “N.S”. Also, the Cell split ratio result in data set [3] (6.00 μM plus G418, day 11) is “N.S”; in data set [3] (6.00 μM plus G418, day 15), “N.S”; in data set [3] (6.00 μM plus G418, day 18), “N.S”; in data set [3] (6.00 μM plus G418, day 22) it was “N.S”; in data set [3] (6.00 μM plus G418, day 25), “N.S”. In addition, the “rate of cell expansion” value in data set [3] is “dose-dependent decrease in the rate of cell expansion”. Moreover, the resistant clonal populations result in data set [3] was “production of distinct individual resistant clonal populations”.

(Values after patent US20140113958A1, “HCV Combination Therapy” (priority 2011, published 2014).)
